Reference: article PMC10141580, “Cyclic Dichalcogenides Extend the Reach of Bioreductive Prodrugs to Harness Thiol/Disulfide Oxidoreductases: Applications to seco-Duocarmycins Targeting the Thioredoxin System” (ACS Central Science, 2023)
Like-named read-outs stand apart in the source and are kept apart here.

Test system: panel of 140 standard cancer cell lines
Assay: ProliFiler-140 cancer cell line screen (CellTiterGlo, 72 h)
Assay type: cell-based
Procedure: Incubations were performed for 72 h before automated viability readout with CellTiterGlo (Figure 8).
End of Figure S11 (part 5 of 5): ProliFiler-140 cancer cell line screening for cytotoxicity of the prodrugs.
8-data-point dose response curves from CellTiter-Glo® viability readout.
ProliFiler-140 cell line panel part V

IC50 (Homo sapiens, NCI-H2009, NCI-H2009 (Lung), read-out: IC50 [M] (ProliFiler-140)): 1.41e-07 M | IC50 (Homo sapiens, NCI-H2228, H2228 (Lung), read-out: IC50 [M] (ProliFiler-140)): 5.73e-08 M | IC50 (Homo sapiens, NCI-H2286, NCI-H2286 (Lung), read-out: IC50 [M] (ProliFiler-140)): 4.4e-08 M | IC50 (Homo sapiens, NCI-N87, NCI-N87 (Stomach), read-out: IC50 [M] (ProliFiler-140)): 2e-07 M | IC50 (Homo sapiens, OCI-AML-3, OCI-AML3 (Blood), read-out: IC50 [M] (ProliFiler-140)): 7.6e-08 M | IC50 (Homo sapiens, OCI-AML-5, OCI-AML5 (Blood), read-out: IC50 [M] (ProliFiler-140)): 3.1e-08 M | IC50 (Homo sapiens, OCI-LY19, OCI-LY19 (Blood), read-out: IC50 [M] (ProliFiler-140)): 5.55e-09 M | IC50 (Homo sapiens, OPM-2, OPM-2 (Blood), read-out: IC50 [M] (ProliFiler-140)): 2.43e-07 M | IC50 (Homo sapiens, OVCAR-3, OVCAR-3 (Ovary), read-out: IC50 [M] (ProliFiler-140)): 3.7e-07 M | IC50 (Homo sapiens, OVCAR-3, OVCAR-3, read-out: IC50): 3.7e-07 M | IC50 (Homo sapiens, P31-FUJ, P31/FUJ (Blood), read-out: IC50 [M] (ProliFiler-140)): 1e-07 M | IC50 (Homo sapiens, PANC-1, PANC-1 (Pancreas), read-out: IC50 [M] (ProliFiler-140)): 8e-07 M | IC50 (Homo sapiens, RL95-2, RL95-2 (Endometrium), read-out: IC50 [M] (ProliFiler-140)): 1.97e-07 M | IC50 (Homo sapiens, RPMI-8226, RPMI 8226 (Blood), read-out: IC50 [M] (ProliFiler-140)): 8.84e-08 M | IC50 (Homo sapiens, SAOS-2, Saos-2 EC (Bone), read-out: IC50 [M] (ProliFiler-140)): 2.02e-07 M | IC50 (Homo sapiens, SCLC-21H, SCLC-21H (Lung), read-out: IC50 [M] (ProliFiler-140)): 2.91e-07 M | IC50 (Homo sapiens, SJSA-1, SJSA-1 (Bone), read-out: IC50 [M] (ProliFiler-140)): 4.01e-07 M | IC50 (Homo sapiens, SK-BR-3, SK-BR-3 (Breast), read-out: IC50 [M] (ProliFiler-140)): 1.3e-07 M | IC50 (Homo sapiens, SK-ES1, SK-ES-1 (Bone), read-out: IC50 [M] (ProliFiler-140)): 2.61e-08 M | IC50 (Homo sapiens, SK-LU-1, SK-LU-1 (Lung), read-out: IC50 [M] (ProliFiler-140)): 2.7e-07 M | IC50 (Homo sapiens, SK-MEL3, SK-MEL-3 (Skin), read-out: IC50 [M] (ProliFiler-140)): 5.1e-07 M | IC50 (Homo sapiens, SK-N-FI, SK-N-FI (Brain), read-out: IC50 [M] (ProliFiler-140)): 1.36e-06 M | IC50 (Homo sapiens, SK-N-MC, SK-N-MC (Brain), read-out: IC50 [M] (ProliFiler-140)): 1.5e-08 M | IC50 (Homo sapiens, SK-N-SH, SK-N-SH (Brain), read-out: IC50 [M] (ProliFiler-140)): 9.8e-08 M | IC50 (Homo sapiens, SK-OV-3, SK-OV3 (Ovary), read-out: IC50 [M] (ProliFiler-140)): 1.76e-07 M | IC50 (Homo sapiens, SNU1, SNU-1 (Stomach), read-out: IC50 [M] (ProliFiler-140)): 5.9e-08 M | IC50 (Homo sapiens, SNU-16, SNU-16 (Stomach), read-out: IC50 [M] (ProliFiler-140)): 1.37e-07 M | IC50 (Homo sapiens, SU-DHL-5, SU-DHL-5 (Blood), read-out: IC50 [M] (ProliFiler-140)): 9.1e-09 M | IC50 (Homo sapiens, SW480, SW480 (Colon), read-out: IC50 [M] (ProliFiler-140)): 1.2e-07 M | IC50 (Homo sapiens, SW948, SW948 (Colon), read-out: IC50 [M] (ProliFiler-140)): 3.46e-07 M | IC50 (Homo sapiens, SW1783, SW-1783 (Brain), read-out: IC50 [M] (ProliFiler-140)): 2.99e-07 M | IC50 (Homo sapiens, SW-620, SW620 (Colon), read-out: IC50 [M] (ProliFiler-140)): 3.06e-07 M | IC50 (Homo sapiens, SiHa, SiHa (Ovary), read-out: IC50 [M] (ProliFiler-140)): 1.47e-07 M | IC50 (Homo sapiens, T47D, T-47D (Breast), read-out: IC50 [M] (ProliFiler-140)): 4.3e-07 M | IC50 (Homo sapiens, T98G, T98G (Brain), read-out: IC50 [M] (ProliFiler-140)): 1.17e-06 M | IC50 (Homo sapiens, U2OS, U2OS (Bone), read-out: IC50 [M] (ProliFiler-140)): 1.14e-07 M | IC50 (Homo sapiens, U-87 MG, U87MG (Brain), read-out: IC50 [M] (ProliFiler-140)): 1.6e-07 M | IC50 (Homo sapiens, U-118-MG, U118MG (Brain), read-out: IC50 [M] (ProliFiler-140)): 2.57e-07 M | IC50 (Homo sapiens, U-251, U251MG (Brain), read-out: IC50 [M] (ProliFiler-140)): 7.8e-07 M | IC50 (Homo sapiens, U-266, U-266 (Blood), read-out: IC50 [M] (ProliFiler-140)): 1.11e-07 M | IC50 (Homo sapiens, U-937, U-937 (Blood), read-out: IC50 [M] (ProliFiler-140)): 2.57e-08 M | IC50 (Homo sapiens, ZR-75-1, ZR-75-1 (Breast), read-out: IC50 [M] (ProliFiler-140)): 1.35e-06 M | IC50 (Ishikawa (Endometrium), listed as Dox, read-out: IC50 [M] (ProliFiler-140)): 7.74e-08 M | IC50 (J82 (Bladder), read-out: IC50 [M] (ProliFiler-140)): 7.98e-07 M | IC50 (JIMT-1 (Breast), listed as Dox, read-out: IC50 [M] (ProliFiler-140)): 1.29e-06 M | IC50 (Jurkat (Blood), listed as Dox, read-out: IC50 [M] (ProliFiler-140)): 4e-08 M | IC50 (K562 (Blood), listed as Dox, read-out: IC50 [M] (ProliFiler-140)): 4.42e-07 M | IC50 (KG-1 (Blood), read-out: IC50 [M] (ProliFiler-140)): 1.21e-06 M | IC50 (KG-1 a (Blood), listed as Dox, read-out: IC50 [M] (ProliFiler-140)): 4.9e-07 M | IC50 (Kato III (Stomach), listed as Dox, read-out: IC50 [M] (ProliFiler-140)): 8.99e-07 M | IC50 (LN229 (Brain), listed as Dox, read-out: IC50 [M] (ProliFiler-140)): 2.2e-07 M | IC50 (LOU-NH91 (Lung), listed as Dox, read-out: IC50 [M] (ProliFiler-140)): 2.89e-07 M | IC50 (LOU-NH91, LOU-NH91 (Lung), read-out: IC50 [M] (ProliFiler-140)): 2.9e-07 M | IC50 (LP-1 (Blood), listed as Dox, read-out: IC50 [M] (ProliFiler-140)): 6.62e-07 M | IC50 (LP-1 (Blood), read-out: IC50 [M] (ProliFiler-140)): 6.6e-07 M | IC50 (LnCap (Prostate), listed as Dox, read-out: IC50 [M] (ProliFiler-140)): 1.92e-07 M | IC50 (M07e (Blood), listed as Dox, read-out: IC50 [M] (ProliFiler-140)): 4.6e-08 M | IC50 (M-07e, M07e (Blood), read-out: IC50 [M] (ProliFiler-140)): 4.63e-08 M
SMILES: COc1cccc2c1C(=O)c1c(O)c3c(c(O)c1C2=O)C[C@@](O)(C(=O)CO)C[C@@H]3O[C@H]1C[C@H](N)[C@H](O)[C@H](C)O1 [doxorubicin, reference compound]
